Experimental data taken from patent US6384015B1, “Selective lysis of malaria infected erythrocytes” (priority 1997, dated 2002).

Tested on: P. falciparum (New Guinean isolate D10)
Assay: Parasitemia assay in P. falciparum infected human erythrocytes
Assay type: cell-based
Description: P. falciparum (New Guinean isolate D10) cultures were grown and maintained substantially as described in Trager et al. (1976) Science 193, 673-675. Human type O+ blood was obtained from healthy donors. Magainin 2 (Matsuzaki et al., 1995, supra) was made by solid phase peptide synthesis. Parasitemia assays were performed substantially as described in Pasvol et al (1978) Ann Trop Med Parasitol 72, 87-92 and Magowan et al. (1995) Blood 86, 3196-3204. […] Each group was done in triplicate and 7,500 erythrocytes were counted for each data point. […]
FIG. 1 provides a graphical representation of the data showing the inhibition of parasitemia in infected human erythrocytes over the foregoing time courses and concentrations. In the figure, ● represents data points for the untreated cells, ▪ represents data points for cells treated at 10 uM, ▴ at 25 uM, and ▾ at 50 uM.

Substance Magainin 2 has a parasitemia (10 uM magainin 2, Day 1) of 0.92, a parasitemia (10 uM magainin 2, Day 2) of 1.88 and a parasitemia (10 uM magainin 2, Day 3) of 2.40. It also gave a parasitemia (10 uM magainin 2, Day 4) of 4.52, a parasitemia (25 uM magainin 2, Day 1) of 0.41 and a parasitemia (25 uM magainin 2, Day 2) of 1.88. It also gave a parasitemia (25 uM magainin 2, Day 3) of 1.61, a parasitemia (25 uM magainin 2, Day 4) of 3.68 and a parasitemia (50 uM magainin 2, Day 1) of 0.52. For the same substance, the parasitemia (50 uM magainin 2, Day 2) was 1.43, the parasitemia (50 uM magainin 2, Day 3) was 1.96 and the parasitemia (50 uM magainin 2, Day 4) was 2.87. The “inhibition of parasitemia in infected human erythrocytes” value (10, 25 and 50 uM, over the time course) was “dose and time dependent inhibitions of parasitemia” and the “selective lysis of infected versus non-infected erythrocytes” value (P. falciparum infected blood-borne human erythrocytes, Examples 1 and 2) was “particular effective at selectively lysing P. falciparum infected blood-borne human erythrocytes as compared with non-infected cells”.
